Measured values as given in patent US11214803B2, “Modulators of YAP1 expression” (Ionis Pharmaceuticals, Inc., priority 2019, dated 2022).
Strand notation (5' to 3'): a small letter for the sugar, then the base; units joined by * are phosphorothioate-linked, units joined directly phosphodiester-linked; [ ] holds rarer units or linkages, { } end groups; capitals alone tell only the bases. k = constrained ethyl (cEt); [5mC] = 5-methylcytosine; d = 2'-deoxy (DNA)

System: Yap1 mRNA
Test: Dose-dependent inhibition of human Yap1 in A-431 cells (Example 8, 10,000 cells per well, RTS4814)
Format: cell-based
Conditions: free uptake, approximately 48 hours, RTS4814; for Yap1 mRNA, % UTC: A-431 cells, 10,000 cells per well; for IC50: A-431 cells, linear regression on log/linear plot
Description: Modified oligonucleotides described in the studies above were tested at various doses in A-431 cells. Cultured A-431 cells at a density of 10,000 cells per well were treated using free uptake with modified oligonucleotides diluted to concentrations described in the tables below. After approximately 48 hours, Yap1 mRNA levels were measured as previously described using the Human Yap1 primer-probe set RTS4814. Yap1 mRNA levels were normalized to total RNA content, as measured by RIBOGREEN®. Results are presented in the tables below as percent control of the amount of Yap1 mRNA relative to untreated control cells (% UTC). IC50s were calculated using a linear regression on a log/linear plot of the data in excel.

1076326 (kG*k[5mC]*kT*dA*dA*dT*dA*dA*dT*dG*dG*dA*dA*kG*kA*kG; antisense) [compound 1076326]
Yap1 mRNA, % UTC (31.3 nM): 53 % UTC | Yap1 mRNA, % UTC (125.0 nM): 20 % UTC | Yap1 mRNA, % UTC (500.0 nM): 6 % UTC | Yap1 mRNA, % UTC (2000.00 nM): 3 % UTC | IC50: < 20 nM

1075047 (antisense kT*kA*kA*dA*dA*dT*dT*dA*dG*dA*d[5mC]*dT*d[5mC]*k[5mC]*k[5mC]*k[5mC]) [compound 1075047]
Yap1 mRNA, % UTC (31.3 nM): 80 % UTC | Yap1 mRNA, % UTC (125.0 nM): 63 % UTC | Yap1 mRNA, % UTC (500.0 nM): 27 % UTC | Yap1 mRNA, % UTC (2000.00 nM): 10 % UTC | IC50: 200 nM

1074537 (k[5mC]*kA*kG*dT*dA*dA*dT*dA*dG*d[5mC]*dT*d[5mC]*dT*kT*kT*k[5mC]; antisense) [compound 1074537]
Yap1 mRNA, % UTC (31.3 nM): 47 % UTC | Yap1 mRNA, % UTC (125.0 nM): 21 % UTC | Yap1 mRNA, % UTC (500.0 nM): 6 % UTC | Yap1 mRNA, % UTC (2000.00 nM): 4 % UTC | IC50: < 20 nM

1074245 (antisense kA*kG*kA*dA*dG*dT*dA*dT*d[5mC]*dT*d[5mC]*dT*dG*kA*k[5mC]*k[5mC]) [compound 1074245]
Yap1 mRNA, % UTC (31.3 nM): 47 % UTC | Yap1 mRNA, % UTC (125.0 nM): 21 % UTC | Yap1 mRNA, % UTC (500.0 nM): 8 % UTC | Yap1 mRNA, % UTC (2000.00 nM): 5 % UTC | IC50: < 20 nM

1076427 (k[5mC]*kA*kA*dA*dT*dT*dT*dA*d[5mC]*dT*dG*dA*dT*k[5mC]*kT*k[5mC]; antisense) [compound 1076427]
Yap1 mRNA, % UTC (31.3 nM): 75 % UTC | Yap1 mRNA, % UTC (125.0 nM): 30 % UTC | Yap1 mRNA, % UTC (500.0 nM): 9 % UTC | Yap1 mRNA, % UTC (2000.00 nM): 4 % UTC | IC50: 100 nM

1075808 (kG*k[5mC]*kA*dA*dT*dA*dG*dA*dG*dT*dA*dA*d[5mC]*k[5mC]*kA*kG; antisense) [compound 1075808]
Yap1 mRNA, % UTC (31.3 nM): 38 % UTC | Yap1 mRNA, % UTC (125.0 nM): 9 % UTC | Yap1 mRNA, % UTC (500.0 nM): 4 % UTC | Yap1 mRNA, % UTC (2000.00 nM): 4 % UTC | IC50: < 20 nM

1075081 (antisense kG*kA*kT*dT*dA*d[5mC]*dA*dA*dA*dG*dA*d[5mC]*dA*kG*k[5mC]*k[5mC]) [compound 1075081]
Yap1 mRNA, % UTC (31.3 nM): 76 % UTC | Yap1 mRNA, % UTC (125.0 nM): 50 % UTC | Yap1 mRNA, % UTC (500.0 nM): 22 % UTC | Yap1 mRNA, % UTC (2000.00 nM): 9 % UTC | IC50: 100 nM

1076067 (kG*k[5mC]*kA*dT*dA*dT*dA*dA*dG*dA*dT*dG*dT*kT*kT*kG; antisense) [compound 1076067]
Yap1 mRNA, % UTC (31.3 nM): 45 % UTC | Yap1 mRNA, % UTC (125.0 nM): 13 % UTC | Yap1 mRNA, % UTC (500.0 nM): 5 % UTC | Yap1 mRNA, % UTC (2000.00 nM): 4 % UTC | IC50: < 20 nM

1076298 (kG*kT*kT*dA*dT*dA*dA*dA*dG*dA*d[5mC]*d[5mC]*d[5mC]*kA*kA*kT; antisense) [compound 1076298]
Yap1 mRNA, % UTC (31.3 nM): 92 % UTC | Yap1 mRNA, % UTC (125.0 nM): 58 % UTC | Yap1 mRNA, % UTC (500.0 nM): 29 % UTC | Yap1 mRNA, % UTC (2000.00 nM): 18 % UTC | IC50: 200 nM

1075115 (kG*kT*kA*dT*dA*dG*d[5mC]*d[5mC]*dT*dT*dA*dT*dT*k[5mC]*kT*kT; antisense) [compound 1075115]
Yap1 mRNA, % UTC (31.3 nM): 57 % UTC | Yap1 mRNA, % UTC (125.0 nM): 41 % UTC | Yap1 mRNA, % UTC (500.0 nM): 17 % UTC | Yap1 mRNA, % UTC (2000.00 nM): 9 % UTC | IC50: 100 nM
